Assay results: PubChem BioAssay AID248 (DTP/NCI, 2004)
Inconclusive results and toxic doses are left out. Rule as the data show it: active = T/C of 150% or more; inactive = T/C below 125%.

Tested on: L1210 leukemia ip in BDF1 mice, survival T/C
Assay: NCI In Vivo Anticancer Drug Screen. Data for tumor model L1210 Leukemia (intraperitoneal) in B6D2F1 (BDF1) mice
Conditions: endpoint: mean survival time, higher = longer survival
In short: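 Ratio derived from survival: compound-dosed mice over vehicle-dosed mice, all bearing a transplantable tumor.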

[1] = dose: 100.0 mg/kg/injection, schedule: Q04DX002 (ip), vehicle: Klucel (hydroxypropylcellulose) (HPC)
[2] = dose: 200.0 mg/kg/injection, schedule: Q04DX002 (ip), vehicle: Klucel (hydroxypropylcellulose) (HPC)
[3] = dose: 400.0 mg/kg/injection, schedule: Q04DX002 (ip), vehicle: Klucel (hydroxypropylcellulose) (HPC)
[4] = dose: 100.0 mg/kg/injection, schedule: Q01DX009 (ip), vehicle: Klucel (hydroxypropylcellulose) (HPC)
[5] = dose: 200.0 mg/kg/injection, schedule: Q01DX009 (ip), vehicle: Klucel (hydroxypropylcellulose) (HPC)
[6] = dose: 400.0 mg/kg/injection, schedule: Q01DX009 (ip), vehicle: Klucel (hydroxypropylcellulose) (HPC)
[7] = dose: 25.0 mg/kg/injection, schedule: Q01DX009 (ip), vehicle: saline
[8] = dose: 100.0 mg/kg/injection, schedule: Q01DX001 (ip), vehicle: saline
[9] = dose: 200.0 mg/kg/injection, schedule: Q01DX001 (ip), vehicle: saline
[10] = dose: 400.0 mg/kg/injection, schedule: Q01DX001 (ip), vehicle: saline
[11] = dose: 100.0 mg/kg/injection, schedule: Q01DX001 (ip), vehicle: carboxymethylcellulose (CMC)
[12] = dose: 200.0 mg/kg/injection, schedule: Q01DX001 (ip), vehicle: carboxymethylcellulose (CMC)
[13] = dose: 400.0 mg/kg/injection, schedule: Q01DX001 (ip), vehicle: carboxymethylcellulose (CMC)
[14] = dose: 100.0 mg/kg/injection, schedule: Q04DX003 (ip), vehicle: Klucel (hydroxypropylcellulose) (HPC)
[15] = dose: 200.0 mg/kg/injection, schedule: Q04DX003 (ip), vehicle: Klucel (hydroxypropylcellulose) (HPC)
[16] = dose: 400.0 mg/kg/injection, schedule: Q04DX003 (ip), vehicle: Klucel (hydroxypropylcellulose) (HPC)
[17] = dose: 100.0 mg/kg/injection, schedule: Q01DX009 (ip), vehicle: saline

Measured: T/C

C[CH2][Ge]([CH2]C)[CH2]C.C[CH2][Ge]([CH2]C)[CH2]C.C[CH2][Ge]([CH2]C)[O][Ge]([CH2]C)[CH2]C
inactive: dose: 100.0 mg/kg/injection, schedule: Q04DX002 (ip), vehicle: saline with Tween-80 106 % of control | dose: 200.0 mg/kg/injection, schedule: Q04DX002 (ip), vehicle: saline with Tween-80 106 % of control | dose: 400.0 mg/kg/injection, schedule: Q04DX002 (ip), vehicle: saline with Tween-80 116 % of control

CCCCOc1ccc(OCCCC)cc1
inactive: [1] 105 % of control | [2] 97 % of control | [3] 101 % of control

CCCCCCCCCCCCCC[Si](Cl)(Cl)Cl
inactive: dose: 75.0 mg/kg/injection, schedule: Q01DX001 (ip), vehicle: saline 94 % of control | dose: 150.0 mg/kg/injection, schedule: Q01DX001 (ip), vehicle: saline 92 % of control

O=S(=O)(O)C(Cl)c1ccccc1 (configuration not stated)
inactive: dose: 100.0 mg/kg/injection, schedule: Q04DX002 (ip), vehicle: saline 105 % of control | dose: 200.0 mg/kg/injection, schedule: Q04DX002 (ip), vehicle: saline 102 % of control | dose: 400.0 mg/kg/injection, schedule: Q04DX002 (ip), vehicle: saline 98 % of control

Cc1cc(Cl)ccc1OC(=O)Nc1cccc(Cl)c1Cl
inactive: [4] 102 % of control | [5] 89 % of control | [6] 94 % of control

O=[N+]([O-])c1c(Cl)nc2ccccn12
inactive: dose: 3.13 mg/kg/injection, schedule: Q01DX009 (ip), vehicle: saline 93 % of control | dose: 5.0 mg/kg/injection, schedule: Q01DX001 (ip), vehicle: saline 100 % of control | dose: 6.25 mg/kg/injection, schedule: Q01DX009 (ip), vehicle: saline 95 % of control | dose: 10.0 mg/kg/injection, schedule: Q01DX001 (ip), vehicle: saline 98 % of control | dose: 12.5 mg/kg/injection, schedule: Q01DX009 (ip), vehicle: saline 93 % of control | dose: 20.0 mg/kg/injection, schedule: Q01DX001 (ip), vehicle: saline 100 % of control | [7] 93 % of control | dose: 40.0 mg/kg/injection, schedule: Q01DX001 (ip), vehicle: saline 96 % of control | dose: 80.0 mg/kg/injection, schedule: Q01DX001 (ip), vehicle: saline 93 % of control | [8] 101 % of control | [9] 110 % of control | [10] 108 % of control

Cn1c(-c2ccccc2)nc2c(N)ncnc21
inactive: dose: 25.0 mg/kg/injection, schedule: Q01DX001 (ip), vehicle: saline with Tween-80 95 % of control | dose: 50.0 mg/kg/injection, schedule: Q01DX001 (ip), vehicle: saline with Tween-80 90 % of control | dose: 100.0 mg/kg/injection, schedule: Q01DX001 (ip), vehicle: saline with Tween-80 90 % of control

CC(=O)OC1CCC2(C)C(CCC3C2CC(=O)C2(C)C3CC(Sc3ccc(N(CCCl)CCCl)cc3)C2C(C)=O)C1 (configuration not stated)
inactive: dose: 100.0 mg/kg/injection, schedule: Q01DX001 (sc), vehicle: steriod suspending solution 108 % of control | dose: 200.0 mg/kg/injection, schedule: Q01DX001 (sc), vehicle: steriod suspending solution 103 % of control | dose: 400.0 mg/kg/injection, schedule: Q01DX001 (sc), vehicle: steriod suspending solution 105 % of control

CCCC(O)CN (configuration not stated)
inactive: dose: 50.0 mg/kg/injection, schedule: Q01DX001 (ip), vehicle: carboxymethylcellulose (CMC) 98 % of control | [11] 102 % of control | [12] 104 % of control | [13] 116 % of control

Cc1[nH]c(N)nc(=S)c1CCCN(C(=O)c1ccccc1)c1ccccc1
inactive: dose: 37.5 mg/kg/injection, schedule: Q01DX001 (ip), vehicle: Klucel (hydroxypropylcellulose) (HPC) 90 % of control | dose: 150.0 mg/kg/injection, schedule: Q01DX001 (ip), vehicle: Klucel (hydroxypropylcellulose) (HPC) 90 % of control

O=c1oc(-c2ccccc2I)nc2ccccc12
inactive: dose: 50.0 mg/kg/injection, schedule: Q04DX003 (ip), vehicle: Klucel (hydroxypropylcellulose) (HPC) 88 % of control | [4] 95 % of control | [14] 103 % of control | [5] 97 % of control | [15] 97 % of control | [6] 88 % of control | [16] 104 % of control

CCCCCCCCCCCCCCCCCCNC(=O)Nc1ccc(OC)cc1
inactive: [1] 93 % of control | [2] 104 % of control | [3] 93 % of control

CCc1c(N)nc(N)nc1Nc1ccc(C)cc1
inactive: dose: 6.0 mg/kg/injection, schedule: Q01DX Z (ip), vehicle: methylcellulose (MC) 95 % of control | dose: 12.0 mg/kg/injection, schedule: Q01DX Z (ip), vehicle: methylcellulose (MC) 97 % of control

O=S(=O)(Nc1ccccc1F)c1cc(Cl)c(Cl)cc1Cl
inactive: [17] 96 % of control | dose: 200.0 mg/kg/injection, schedule: Q01DX009 (ip), vehicle: saline 96 % of control | dose: 400.0 mg/kg/injection, schedule: Q01DX009 (ip), vehicle: saline 94 % of control

O=C(O)COc1ccccc1[N+](=O)[O-]
inactive: [1] 96 % of control | [2] 100 % of control | [3] 96 % of control

CCCCCCCN(CCCCCCC)C(C)=O
inactive: dose: 100.0 mg/kg/injection, schedule: Q01DX001 (ip), vehicle: other 93 % of control | dose: 200.0 mg/kg/injection, schedule: Q01DX001 (ip), vehicle: other 93 % of control | dose: 400.0 mg/kg/injection, schedule: Q01DX001 (ip), vehicle: other 93 % of control

N#CCCCCCCn1cnc2c(=S)nc[nH]c21
inactive: [14] 104 % of control | [15] 107 % of control | [16] 107 % of control

Cc1cc(N(C)C)nc(SCc2ccc(F)cc2)n1
inactive: dose: 200.0 mg/kg/injection, schedule: Q01DX Z (ip), vehicle: methylcellulose (MC) 96 % of control

O=C(Nc1ccc(S(=O)(=O)F)cc1)/C(=C/c1ccc([N+](=O)[O-])cc1)c1ccccc1
inactive: dose: 12.5 mg/kg/injection, schedule: Q01DX009 (ip), vehicle: saline with Tween-80 102 % of control | dose: 25.0 mg/kg/injection, schedule: Q01DX009 (ip), vehicle: saline with Tween-80 109 % of control | dose: 50.0 mg/kg/injection, schedule: Q01DX009 (ip), vehicle: saline with Tween-80 98 % of control

Cc1ccc(S(=O)(=O)OC2CCCC3CCCCC32)cc1 (configuration not stated)
inactive: [8] 98 % of control | [9] 100 % of control | [10] 98 % of control

CCCCCCCCCCCCCCn1cnc2ncnc(Cl)c21
inactive: dose: 12.5 mg/kg/injection, schedule: Q01DX005 (ip), vehicle: other 104 % of control | dose: 25.0 mg/kg/injection, schedule: Q01DX005 (ip), vehicle: other 104 % of control | dose: 50.0 mg/kg/injection, schedule: Q01DX005 (ip), vehicle: other 103 % of control | dose: 100.0 mg/kg/injection, schedule: Q01DX005 (ip), vehicle: other 101 % of control | dose: 200.0 mg/kg/injection, schedule: Q01DX005 (ip), vehicle: other 96 % of control

NC(C(=O)O)C(O)c1ccc2c(c1)OCO2 (configuration not stated)
inactive: dose: 100.0 mg/kg/injection, schedule: Q01DX009 (ip), vehicle: saline with Tween-80 103 % of control | dose: 200.0 mg/kg/injection, schedule: Q01DX009 (ip), vehicle: saline with Tween-80 103 % of control | dose: 400.0 mg/kg/injection, schedule: Q01DX009 (ip), vehicle: saline with Tween-80 113 % of control

C1CCC2(CC1)CCCC2
inactive: dose: 75.0 mg/kg/injection, schedule: Q01DX001 (ip), vehicle: saline with Tween-80 95 % of control | dose: 150.0 mg/kg/injection, schedule: Q01DX001 (ip), vehicle: saline with Tween-80 92 % of control | dose: 300.0 mg/kg/injection, schedule: Q01DX001 (ip), vehicle: saline with Tween-80 104 % of control

CCOc1ccc(Br)cc1/C=N\N=C\c1cc(Br)ccc1OCC
inactive: [7] 101 % of control | dose: 50.0 mg/kg/injection, schedule: Q01DX009 (ip), vehicle: saline 100 % of control | [17] 100 % of control | dose: 100.0 mg/kg/injection, schedule: Q04DX003 (ip), vehicle: saline 86 % of control

COc1ccc(CCNC(=O)Cc2ccc([N+](=O)[O-])cc2)cc1OC
inactive: [11] 89 % of control | [12] 98 % of control | [13] 93 % of control
